In ChEMBL document CHEMBL1135106 (Bioorg Med Chem Lett, 2002) one finds IC50 data, which are given here for nine molecules.

The subject of one test is HCT-116. Kind of test: Tested for antiproliferative activity against HCT116 colorectal human carcinoma cell using WST-1 assay. The class given is functional, cell-based. Background: Tetrazolium assays rely on reduction of a dye to a coloured formazan, in cell work by metabolically active cells.
Test [1] can be described thus: Tested for inhibitory concentration required to inhibit 50% of histone deacetylase (HDAC) purified from human T cell leukemia Jurkat cell.
Test [2] in a line: Tested for inhibitory concentration required to inhibit 50% of histone deacetylase (HDAC) from human T cell leukemia Jurkat cell. The class given is cell-based.

The term IC50 denotes the concentration at which inhibition is half-maximal. Low readings indicate greater potency, high ones weaker potency. As to `O=C(NO)c1ccc(CNC(=O)c2ccc(-c3ccccc3)cc2)cc1`, the figures for the 50% inhibitory concentration (IC50) (in the test on HCT-116; in test [1]) were 3.2 µM and 0.24 µM, respectively.

Take `O=C(NCC1CCC(C(=O)NO)CC1)c1ccc(-c2ccccc2)cc1` (stereo not drawn): the IC50 was found to be 4.7 µM in the test on HCT-116 and 0.31 µM in test [1].

Turning to `O=C(NO)c1ccc(CNC(=O)c2ccc3ccccc3c2)cc1`, the IC50 in the test with HCT-116 is 0.7 µM; in test [1], 0.044 µM.

Turning to `O=C(NO)C1CCC(CNS(=O)(=O)c2ccccc2)CC1` (stereo not drawn), the IC50 in the test on HCT-116 is 77.9 µM.

`O=C(NCc1ccc(C(=O)NO)cc1)NC12CC3CC(CC(C3)C1)C2` displayed an IC50 with HCT-116 of 112 µM.

In the case of `O=C(NO)c1ccc(CNC(=O)c2cccc3ccccc23)cc1`, the IC50 was determined as 9.7 µM with HCT-116 and 0.83 µM in test [1].

In the test on HCT-116, `O=C(NCC1CCC(C(=O)NO)CC1)NC12CC3CC(CC(C3)C1)C2` (stereo not drawn) gave an IC50 of 20.9 µM.

As to `Nc1ccccc1NC(=O)c1ccc(CNC(=O)OCc2cccnc2)cc1` [ENTINOSTAT], 5.4 µM corresponded to half-maximal inhibition in the test on HCT-116 (IC50).

In turn, `CC(/C=C/C(=O)NO)=C\[C@@H](C)C(=O)c1ccc(N(C)C)cc1` [TRICHOSTATIN] came in with an IC50 in test [2] of 0.0033 µM.
